Where no end group is shown, it is not given here. [ ]: non-standard residue; d: D form. The star is where a group is joined. hArg = N=C(N)NCCCC[C@H](N)C(=O)O; Orn = NCCC[C@H](N)C(=O)O; Hexanoyl = CCCCCC(=O)*; Aib = CC(C)(N)C(=O)O
How the values were obtained:
[1] = target: T1, human VPAC2 (Homo sapiens, UniProt P41587); assay: Alpha screen cAMP in vitro potency, human VPAC2 receptor; format: cell-based; settings: cAMP generation; single result from two analyses performed in a single run; read-out: Human VPAC2 Receptor: Alpha Screen EC50
T1 construct: expressed in transfected cells
T1 sequence (P41587 24-438): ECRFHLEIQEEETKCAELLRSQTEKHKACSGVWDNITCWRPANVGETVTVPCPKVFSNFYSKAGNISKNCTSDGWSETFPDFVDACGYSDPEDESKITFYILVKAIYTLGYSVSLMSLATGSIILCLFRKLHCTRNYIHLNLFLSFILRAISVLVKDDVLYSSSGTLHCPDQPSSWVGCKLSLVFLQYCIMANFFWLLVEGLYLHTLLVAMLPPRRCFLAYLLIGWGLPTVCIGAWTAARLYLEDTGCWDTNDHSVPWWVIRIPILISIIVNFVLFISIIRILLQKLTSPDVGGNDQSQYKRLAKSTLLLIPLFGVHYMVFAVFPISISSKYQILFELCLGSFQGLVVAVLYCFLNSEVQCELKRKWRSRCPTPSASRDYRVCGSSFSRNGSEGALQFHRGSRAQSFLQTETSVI
Summary of the method: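 Cells were detached with enzyme-free dissociation buffer, washed into stimulation buffer and used at 50,000 cells per data point. Stimuli and AlphaScreen acceptor beads were added for 60 minutes, then lysis buffer with donor beads for 60 to 120 minutes; the AlphaScreen signal reports intracellular cAMP.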

[2] = target: T1, human VPAC2; assay: Filter binding assay, membranes of stable VPAC2 cell line, 125I-labeled VIP tracer (Table 2); settings: read-out: Human VPAC2 Receptor Binding
Summary of the method: (§1)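 Membranes 2.5 μg/well; tracer ~40000 cpm; buffer 25 mM HEPES pH 7.4, 0.5% protease-free BSA; 1 h incubation, shaking. Glass-fibre filtration (0.5% polyethyleneamine presoak, 0.2% BSA block), 3× HEPES wash, dry 1 h at 60° C, scintillation count.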

[3] = target: T2, human VPAC1 (Homo sapiens, UniProt P32241); assay: Filter binding assay, membranes of cells transiently transfected with human VPAC1, 125I-labeled VIP tracer (Table 2); set-up: expressed in transfected cells; settings: read-out: Human VPAC1 Receptor Binding
T2 sequence (P32241 31-457): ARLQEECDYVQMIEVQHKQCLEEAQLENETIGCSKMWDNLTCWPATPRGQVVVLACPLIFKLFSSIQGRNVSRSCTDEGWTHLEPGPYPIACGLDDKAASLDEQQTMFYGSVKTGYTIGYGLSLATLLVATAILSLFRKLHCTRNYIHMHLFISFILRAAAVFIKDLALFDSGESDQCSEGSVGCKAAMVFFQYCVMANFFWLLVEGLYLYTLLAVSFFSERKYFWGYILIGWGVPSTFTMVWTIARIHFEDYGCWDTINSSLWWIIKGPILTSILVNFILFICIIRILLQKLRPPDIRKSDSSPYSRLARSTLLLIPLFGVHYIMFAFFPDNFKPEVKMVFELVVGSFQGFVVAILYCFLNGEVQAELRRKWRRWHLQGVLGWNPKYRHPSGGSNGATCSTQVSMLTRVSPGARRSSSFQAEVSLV
Summary of the method: as §1

[4] = target: T3, rat VPAC2 receptor (Rattus norvegicus, UniProt P35000); assay: DiscoveRx in vitro potency, CHO-PO cells transiently transfected with rat VPAC 2 receptor DNA; format: cell-based; set-up: expressed in transfected cells; host or cells: CHO-PO, transient
T3 sequence (P35000 23-437): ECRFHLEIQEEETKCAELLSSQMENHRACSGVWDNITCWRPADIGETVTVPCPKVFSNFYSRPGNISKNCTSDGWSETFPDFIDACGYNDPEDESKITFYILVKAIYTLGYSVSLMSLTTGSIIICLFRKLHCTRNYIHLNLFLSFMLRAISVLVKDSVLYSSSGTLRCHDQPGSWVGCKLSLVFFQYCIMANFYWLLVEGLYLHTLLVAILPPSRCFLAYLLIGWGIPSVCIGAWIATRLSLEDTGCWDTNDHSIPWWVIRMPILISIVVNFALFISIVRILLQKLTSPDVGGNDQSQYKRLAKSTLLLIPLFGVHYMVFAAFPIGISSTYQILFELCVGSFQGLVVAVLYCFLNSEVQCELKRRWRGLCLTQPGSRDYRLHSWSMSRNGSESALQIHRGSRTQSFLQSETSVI
Protocol: Also, the cells are washed twice. […] The stimuli are present for 30 minutes. Then, the assay buffer is gently removed.

[5] = Rat serum stability studies (remaining active peptide by DiscoveRx cAMP on CHO-VPAC2 cells); format: in vitro ADME
Summary of the method: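 EC50 from a DiscoveRx cAMP read-out on CHO-VPAC2 cells indexes how much peptide stays active after 18 h in rat serum at 37° C without aprotinin, against an aprotinin-protected 4° C aliquot.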

Row | Molecule | EC50 [1] | IC50 [2] | IC50 [3] | EC50 [4] | Rat Serum Stability (estimated purity in % after 18 hours) [5] | Rat Serum Stability (Estimated purity in % after 72 hours) [5]
1 | Hexanoyl-HSDAVFTDNYTRLR[Aib]KVAA[Aib]KYLQSIKNKRYGGPSSGAPPPS [Agonist P321] | 0.38 nM | 0.29 nM | 429 nM | 0.04 nM | – | –
2 | Hexanoyl-HSDAVFTDNYTRLR[Aib]QVAA[Aib][Orn]YLQSIKNKRYGGPSSGAPPPS [Agonist P342] | 0.21 nM | 0.35 nM | > 3000 nM | 0.06 nM | 25.96% | –
3 | Hexanoyl-HSDAVFTDNYTRL[hArg][Orn]QVAAKKYLQSIKNKRYGGPSSGAPPPS [Agonist P308] | 0.26 nM | 0.34 nM | 262 nM | 0.09 nM | 0.97% | –
4 | Hexanoyl-HSDAVFTDNYTRLR[Aib]QKAA[Aib]KYLQSIKNKRYGGPSSGAPPPS [Agonist P323] | 0.23 nM | 0.32 nM | > 3000 nM | 0.07 nM | 16.81% | –
5 | CCCCCC(=O)N[C@@H](Cc1c[nH]cn1)C(=O)N[C@@H](CO)C(=O)N[C@@H](CC(=O)O)C(=O)N[C@@H](C)C(=O)N[C@H](C(=O)N[C@@H](Cc1ccccc1)C(=O)N[C@H](C(=O)N[C@@H](CC(=O)O)C(=O)N[C@@H](CC(N)=O)C(=O)N[C@@H](Cc1ccc(O)cc1)C(=O)N[C@H](C(=O)N[C@@H](CCCCNC(=N)N)C(=O)N[C@@H](CC(C)C)C(=O)N[C@@H](CCCNC(=N)N)C(=O)NC(C)(C)C(=O)N[C@@H](CCC(N)=O)C(=O)N[C@H](C(=O)N[C@@H](C)C(=O)N[C@@H](C)C(=O)NC(C)(C)C(=O)N[C@@H](CCCCN)C(=O)N[C@@H](Cc1ccc(O)cc1)C(=O)N[C@@H](CC(C)C)C(=O)N[C@@H](CCC(N)=O)C(=O)N[C@@H](CO)C(=O)N[C@H](C(=O)N[C@@H](CCCCNC(=N)N)C(=O)N[C@@H](CC(N)=O)C(=O)N[C@@H](CCCCNC(=N)N)C(=O)N[C@@H](CCCCNC(=N)N)C(=O)N[C@@H](Cc1ccc(O)cc1)C(=O)NCC(=O)NCC(=O)N1CCC[C@H]1C(=O)N[C@@H](CO)C(=O)N[C@@H](CO)C(=O)NCC(=O)N[C@@H](C)C(=O)N1CCC[C@H]1C(=O)N1CCC[C@H]1C(=O)N1CCC[C@H]1C(=O)N[C@@H](CO)C(=O)O)[C@@H](C)CC)C(C)C)[C@@H](C)O)[C@@H](C)O)C(C)C [Agonist P338] | 0.46 nM | 0.76 nM | > 3000 nM | 0.07 nM | 36.61% | –
6 | CCCCCC(=O)N[C@@H](Cc1c[nH]cn1)C(=O)N[C@@H](CO)C(=O)N[C@@H](CC(=O)O)C(=O)N[C@@H](C)C(=O)N[C@H](C(=O)N[C@@H](Cc1ccccc1)C(=O)N[C@H](C(=O)N[C@@H](CC(=O)O)C(=O)N[C@@H](CC(N)=O)C(=O)N[C@@H](Cc1ccc(O)cc1)C(=O)N[C@H](C(=O)N[C@@H](CCCNC(=N)N)C(=O)N[C@@H](CC(C)C)C(=O)N[C@@H](CCCNC(=N)N)C(=O)NC(C)(C)C(=O)N[C@@H](CCC(N)=O)C(=O)N[C@H](C(=O)N[C@@H](C)C(=O)N[C@@H](C)C(=O)NC(C)(C)C(=O)N[C@@H](CCCCN)C(=O)N[C@@H](Cc1ccc(O)cc1)C(=O)N[C@@H](CC(C)C)C(=O)N[C@@H](CCC(N)=O)C(=O)N[C@@H](CO)C(=O)N[C@H](C(=O)N[C@@H](CCCN)C(=O)N[C@@H](CCCN)C(=O)NCC(=O)NCC(=O)N1CCC[C@H]1C(=O)N[C@@H](CO)C(=O)N[C@@H](CO)C(=O)NCC(=O)N[C@@H](C)C(=O)N1CCC[C@H]1C(=O)N1CCC[C@H]1C(=O)N1CCC[C@H]1C(=O)N[C@@H](CO)C(=O)O)[C@@H](C)CC)C(C)C)[C@@H](C)O)[C@@H](C)O)C(C)C [Agonist P352] | 0.14 nM | 0.6 nM | > 3000 nM | 0.09 nM | 45.09% | 2.2%

Source: patent US20080026996A1, “Selective Vpac2 Receptor Reptide Agonists” (ELI LILLY AND COMPANY, priority 2004, published 2008)
